Key:
[1] = tested on: A2780 cell line; assay: MTS cell viability assay (CellTiter 96), A2780; type: cell-based, human; details: for IC50: A2780, 48 h exposure, MTS, mean ± SEM; for SI (selectivity index): IC50 of fibroblasts / IC50 of A2780
Protocol: (§1) The in vitro cytotoxic potential of complexes Fe1 and Fe2 was evaluated through the CellTiter 96®Aqueous Non-Radioactive Cell Proliferation Assay using MTS, as described in Section 3.3.2 [26].
(§2) The antiproliferative activity of both complexes was evaluated through the exposure of the A2780 cell line to 0.01–50 µM of complexes Fe1 or Fe2 (Figure 3A) and of the HCT116 cell line to 0.1–50 µM of complexes Fe1 or Fe2 (Figure 3B) for 48 h.
(§3) Human colorectal carcinoma (HCT116) and normal dermal fibroblasts cell lines were grown in Dulbecco’s modified Eagle’s medium (DMEM) (Invitrogen Corp., Grand Island, NY, USA) supplemented with 10% (v/v) foetal bovine serum and 1% (v/v) antibiotic/antimycotic solution (Invitrogen Corp.). Human ovarian carcinoma (A2780) cell line was cultivated using the Roswell Park Memorial Institute (RPMI) medium supplemented as DMEM. The supplemented medium is named complete medium. Cells were grown in an incubator with a humidified atmosphere at 5% (v/v) CO2 and 37 °C. All cell lines were purchase from ATCC (ATCC®, American Type Culture Collection, Washington, DC, USA).
(§4) The evaluation of the cytotoxic potential of the complexes Fe1 and Fe2 was obtained through the measurement in vitro of the antiproliferative activity of these complexes. Cells were plated in 96-well plates at 7.5 × 10^4 cells/mL and incubated at 37 °C with 5% (v/v) CO2. After 24 h, the culture medium was replaced with a fresh medium containing 0.01–100 µM of complexes Fe1 or Fe2 and incubated for 48 h, as described previously. DMSO 0.1% (v/v) was used as the vehicle control for all cell lines. The fibroblasts cell line was used as a control of cytotoxicity of the complexes for healthy cells. Cisplatin was used as a positive control (a common chemotherapeutic agent). Cell viability was evaluated using CellTiter 96®Aqueous Non-Radioactive Cell Proliferation Assay (Promega, Madison, WI, USA) using 3-(4,5-dimethylthiazol-2-yl)-5-(3-carboxymethoxyphenyl)-2-(4-sulfophenyl)-2H-tetrazolium, inner salt (MTS), as described previously. In metabolically active cells, enzymes present in the mitochondria catalyse a reaction in which NADPH/ NADH is produced. These enzymes can reduce the MTS reagent into a brownish-coloured product called formazan, which can be quantified by measuring the absorbance at 490 nm. The quantity of product produced is directly proportional to the number of viable cells in culture. The amount of formazan product formed was measured with a Bio-Rad Microplate Reader Model 680 (Bio-Rad, Hercules, CA, USA). Half maximal inhibitory concentration (IC50) was calculated using GraphPad Prism 6 (GraphPad Software, La Jolla, CA, USA). Selectivity index (SI) was calculated for both tumour cell lines by dividing the IC50 of fibroblasts with the IC50 of HCT116 or A2780 for complexes Fe1 and Fe2.

[2] = tested on: HCT116 cell line; assay: MTS cell viability assay (CellTiter 96), HCT116; type: cell-based, human; details: for IC50: HCT116, 48 h exposure, MTS, mean ± SEM; for SI (selectivity index): IC50 of fibroblasts / IC50 of HCT116
Protocol: as §1, §2, §3, §4

[3] = tested on: normal dermal fibroblasts; assay: MTS cell viability assay (CellTiter 96), fibroblasts; type: cell-based, human; details: 48 h exposure, mean ± SEM
Protocol: The antiproliferative effect of complexes Fe1 and Fe2 was also tested on a nontumor cell line, fibroblasts, to evaluate their antiproliferative activity in healthy cells. For that, a range of concentrations from 0.01 to 100 µM of both complexes was used (Figure 4). As previously observed for the tumour cell lines, a concentration-dependent reduction of cell viability is observed (Figure 3 and Figure 4).
Human colorectal carcinoma (HCT116) and normal dermal fibroblasts cell lines were grown in Dulbecco’s modified Eagle’s medium (DMEM) (Invitrogen Corp., Grand Island, NY, USA) supplemented with 10% (v/v) foetal bovine serum and 1% (v/v) antibiotic/antimycotic solution (Invitrogen Corp.). […]
The evaluation of the cytotoxic potential of the complexes Fe1 and Fe2 was obtained through the measurement in vitro of the antiproliferative activity of these complexes. […] Cell viability was evaluated using CellTiter 96®Aqueous Non-Radioactive Cell Proliferation Assay (Promega, Madison, WI, USA) using 3-(4,5-dimethylthiazol-2-yl)-5-(3-carboxymethoxyphenyl)-2-(4-sulfophenyl)-2H-tetrazolium, inner salt (MTS), as described previously. […] These enzymes can reduce the MTS reagent into a brownish-coloured product called formazan, which can be quantified by measuring the absorbance at 490 nm. The quantity of product produced is directly proportional to the number of viable cells in culture. […]

[4] = Solubility in buffer aqueous media; type: physicochemical; details: fully soluble on adding DMSO (final not above 0.1% v/v)
[5] = tested on: zebrafish embryos; assay: Fish embryo acute toxicity test (FET); type: in vivo, zebrafish (Danio rerio); details: for LC50: early blastula stage up to 72 hpf, Logit and Probit analyses; for LOEC (lowest observed effect concentration) / NOEC (no observed effect concentration): up to 72 hpf
Protocol: In addition, the mortality distribution obtained for each compound allowed the accurate estimation of the LC50 (Figure 7). […] For this reason, Fe1 and Fe2 compounds were analysed in vivo using colorectal HCT116 zebrafish xenograft.
The wild-type zebrafish were housed in a water recirculation system under controlled physicochemical conditions of temperature (26 ± 2 °C), pH (7–7.5), and conductivity (400–600 µS/cm). The fertilised eggs were collected after natural spawning and housed in Petri dishes until their use. Next, eggs were exposed to Fe1 and Fe2 and dissolved in water containing 1% DMSO. Then, toxicological analyses were carried out based on the approved standard OECD TG 236—fish embryo toxicity test (FET), with modifications. For the study, four replicates of 12 embryos were distributed for each of the 5 concentrations tested for compounds; for Fe1, the concentrations used were 15, 20, 25, 30, 35 µM), and for Fe2 were 1, 5, 10, 15, 20 µM. The performed zebrafish toxicity experiments were approved by the animal care and use committee of the University of Santiago de Compostela and the standard protocols of Spain (CEEA-LU-003 and […]). The toxicity results data were analysed by probit analysis using ToxRat Software (ToxRat Solutions. 2003. ToxRat. Software for statistical analysis of bioassays. Alsdorf, Germany).

[6] = tested on: human HCT116 colorectal cancer cells; assay: Zebrafish embryo xenograft assay; type: in vivo; details: compared with control
Protocol: HCT116 human colorectal cancer cell line was incubated in standard conditions in a humidified incubator at 37 °C and 5% CO2 until a confluence of 70–80% was reached. Afterwards, the cells were concentrated and labelled with DiI and injected in the circulation (Duct of Cuvier) of 48 hpf zebrafish embryos in order to assay the proliferation in vivo of the cells exposed to Fe1 and Fe2. Fe1 and Fe2 (5 μM and 0.25 μM, respectively) were dissolved in the water at 1-day post injection (dpi) to allow the recovery of the embryos from the injection in the first 24 h and maintained until the end of the experiment at 3 dpi. Imaging of the embryos was performed at 1 dpi and 3 dpi to quantify the fluorescence and area of the cells in the caudal hematopoietic tissue (CHT) in the tail of the embryos, where cells invade and grow, and measure their proliferation over time to assess the inhibitory effect of the compounds assayed over the cells.
The results were calculated based on a comparison between 3 dpi and 1 dpi time points and normalised at 3 dpi against control conditions due to the nature of the lipophilic dye in the proliferation of the cells. […]
At 1 dpi, the embryos were imaged, and the compound (Fe1 and Fe2) was added to the water. […] Imaging of the embryos was performed using a fluorescence stereomicroscope (AZ-100, Nikon, Tokyo, Japan). […]

[7] = Stability in PBS by UV-visible spectrum; type: physicochemical; details: PBS pH 7.0, room temperature, aerobic, over 48 h
Protocol: The stability of complexes Fe1 and Fe2 was evaluated over 48 h at room temperature by monitoring their UV–visible spectrum in PBS (pH 7.0) (Figure 2). […] Based on our previous works with Ru carbonyl metal complexes, we speculate that release of CO ligand, 2 in the case of Fe1 and 1 in the case of Fe2, may occur in the first 30 min, as the decrease profile is more pronounced for Fe1 with two CO ligands (Figure 2B,D). We could also speculate that, in the case of Fe1, both CO ligands might be replaced by water molecules, maintaining the previous charge on this novel Fe species (cationic), while in Fe2, the release of the CO ligand and replacement by water molecule would maintain this new Fe species neutral.
Complexes Fe1 and Fe2 solutions were prepared in 10 mM phosphate-buffered solution (PBS) containing 0.15 M NaCl (pH 7). All spectra were recorded for 48 h on a recorded with a Varian-Cary 100 Bio spectrophotometer (Agilent, Santa Clara, CA, USA), using a quartz cuvette with 1 cm path length in a wavelength range from 220 to 500 nm.

Question: With `N.N.[Cl][Pt][Cl]` [Cisplatin, reference compound] as the compound, how does the IC50 [1] read?
Answer: 1.9 ± 0.2 µM

Question: And the IC50 [2]?
Answer: 15.6 ± 5.3 µM

Question: Which IC50 [1] does the source give for Cp(IMes)Fe(CO)I [Fe2] here?
Answer: 2.91 ± 0.51 µM

Question: And the “SI (selectivity index)” value [1]?
Answer: 14.4

Question: What about the IC50 [3] of the same compound?
Answer: 42 ± 0.75 µM

Question: And the solubility [4]?
Answer: insoluble in buffer aqueous media

Question: What about the IC50 [2] of the same compound?
Answer: 3.26 ± 0.1 µM

Question: What about the “SI (selectivity index)” value [2] of the same compound?
Answer: 12.9

Question: What about the LC50 [5] of the same compound?
Answer: 6.86 µM

Question: And the “LOEC (lowest observed effect concentration)” value [5]?
Answer: 5 µM

Question: What about the “NOEC (no observed effect concentration)” value [5] of the same compound?
Answer: 1 µM

Question: And the “proliferation of HCT116 cells in vivo” value ([6]; 0.25 μM dissolved in the water from 1 dpi to 3 dpi)?
Answer: reduce the proliferation of human HCT116 colorectal cancer cells in vivo

Question: What about the “stability (360 nm band)” value [7] of the same compound?
Answer: a lower decrease of the 360 nm peak intensity occurs within the first 30 min

Question: Which results are given for [Cp(IMes)Fe(CO)2]I [Fe1]?
Answer: IC50 [1]: 1.34 ± 0.25 µM; SI (selectivity index) [1]: 17.7; IC50 [3]: 23.61 ± 0.14 µM; solubility [4]: insoluble in buffer aqueous media; IC50 [2]: 0.87 ± 0.09 µM; SI (selectivity index) [2]: 27.1; LC50 [5]: 24.6 µM; LOEC (lowest observed effect concentration) [5]: 20 µM; NOEC (no observed effect concentration) [5]: 15 µM; proliferation of HCT116 cells in vivo ([6]; 5 μM dissolved in the water from 1 dpi to 3 dpi): reduce the proliferation of human HCT116 colorectal cancer cells in vivo; stability (360 nm band) [7]: rapidly transformed into a new Fe species that is then stable, at least, until 24 h
